Results as given in patent publication US12441726B2, “Compounds and uses thereof” (Foghorn Therapeutics Inc., priority 2020, dated 2025).

Columns and labels:
[1] = molecular target: BRM (Homo sapiens, UniProt P51531); assay: ATPase catalytic activity assay (ADP-Glo), BRM; settings: 30 nM BRM, 400 μM ATP; for IC50: BRM ATPase: IC50 (uM)
Method: The ATPase catalytic activity of BRM or BRG-1 was measured by an in vitro biochemical assay using ADP-Glo™ (Promega, V9102). The ADP-Glo™ kinase assay is performed in two steps once the reaction is complete. The first step is to deplete any unconsumed ATP in the reaction. The second step is to convert the reaction product ADP to ATP, which will be utilized by the luciferase to generate luminesce and be detected by a luminescence reader, such as Envision.
Then following addition of 5 μL of ADP-Glo™ Reagent provided in the kit, the reaction incubates at room temperature for 40 minutes. Then 10 μL of Kinase Detection Reagent provided in the kit is added to convert ADP to ATP, and the reaction incubates at room temperature for 60 minutes. Finally, luminescence measurement is collected with a plate-reading luminometer, such as Envision.

[2] = molecular target: BRG-1 (Homo sapiens, UniProt P51532); assay: ATPase catalytic activity assay (ADP-Glo), BRG-1; settings: for Emax: 1 h, read-out: BRG1 Max % Inhibition, ADP-Glo, 30 nM BRG-1, 400 μM ATP
Sequence of BRG-1 (P51532 whole entry): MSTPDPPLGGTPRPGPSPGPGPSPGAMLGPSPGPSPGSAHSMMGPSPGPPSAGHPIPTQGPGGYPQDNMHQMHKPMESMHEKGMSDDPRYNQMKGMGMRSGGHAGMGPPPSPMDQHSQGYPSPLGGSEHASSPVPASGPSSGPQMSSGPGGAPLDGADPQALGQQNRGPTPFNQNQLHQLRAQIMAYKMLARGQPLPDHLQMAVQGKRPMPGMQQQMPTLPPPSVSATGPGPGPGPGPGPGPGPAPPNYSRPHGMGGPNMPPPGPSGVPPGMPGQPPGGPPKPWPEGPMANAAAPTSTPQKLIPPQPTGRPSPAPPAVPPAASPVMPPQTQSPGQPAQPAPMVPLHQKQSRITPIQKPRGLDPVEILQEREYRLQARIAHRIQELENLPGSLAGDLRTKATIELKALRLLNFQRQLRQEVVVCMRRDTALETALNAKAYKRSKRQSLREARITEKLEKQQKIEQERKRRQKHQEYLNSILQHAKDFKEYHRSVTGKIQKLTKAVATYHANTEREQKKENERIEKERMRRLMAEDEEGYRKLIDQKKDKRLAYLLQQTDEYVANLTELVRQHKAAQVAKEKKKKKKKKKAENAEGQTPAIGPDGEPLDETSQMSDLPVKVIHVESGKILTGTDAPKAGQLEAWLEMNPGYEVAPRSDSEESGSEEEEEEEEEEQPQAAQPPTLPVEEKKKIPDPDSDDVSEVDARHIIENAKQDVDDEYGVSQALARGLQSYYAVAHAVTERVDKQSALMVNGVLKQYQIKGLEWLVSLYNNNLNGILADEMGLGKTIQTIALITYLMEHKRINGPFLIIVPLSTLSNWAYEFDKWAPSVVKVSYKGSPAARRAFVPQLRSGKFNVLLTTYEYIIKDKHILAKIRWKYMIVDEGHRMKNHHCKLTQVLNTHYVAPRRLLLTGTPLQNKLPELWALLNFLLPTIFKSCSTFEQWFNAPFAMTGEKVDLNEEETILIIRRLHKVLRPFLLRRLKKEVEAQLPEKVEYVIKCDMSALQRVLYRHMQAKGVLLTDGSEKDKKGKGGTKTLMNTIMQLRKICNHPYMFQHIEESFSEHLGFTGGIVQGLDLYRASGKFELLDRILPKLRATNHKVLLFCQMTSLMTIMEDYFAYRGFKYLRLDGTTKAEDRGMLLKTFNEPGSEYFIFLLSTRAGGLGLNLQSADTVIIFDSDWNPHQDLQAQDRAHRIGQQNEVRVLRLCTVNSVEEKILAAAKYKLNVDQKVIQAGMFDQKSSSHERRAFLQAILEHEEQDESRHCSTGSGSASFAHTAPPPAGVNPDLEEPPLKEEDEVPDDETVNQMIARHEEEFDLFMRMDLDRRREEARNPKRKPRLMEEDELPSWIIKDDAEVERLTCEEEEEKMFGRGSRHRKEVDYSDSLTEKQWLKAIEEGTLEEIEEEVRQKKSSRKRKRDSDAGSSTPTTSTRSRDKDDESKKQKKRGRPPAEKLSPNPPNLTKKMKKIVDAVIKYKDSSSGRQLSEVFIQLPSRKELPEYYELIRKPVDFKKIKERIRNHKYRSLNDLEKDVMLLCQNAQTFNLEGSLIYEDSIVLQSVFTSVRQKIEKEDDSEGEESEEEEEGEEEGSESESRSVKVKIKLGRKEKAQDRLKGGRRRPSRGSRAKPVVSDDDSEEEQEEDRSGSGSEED

Sequence of BRM (P51531 whole entry): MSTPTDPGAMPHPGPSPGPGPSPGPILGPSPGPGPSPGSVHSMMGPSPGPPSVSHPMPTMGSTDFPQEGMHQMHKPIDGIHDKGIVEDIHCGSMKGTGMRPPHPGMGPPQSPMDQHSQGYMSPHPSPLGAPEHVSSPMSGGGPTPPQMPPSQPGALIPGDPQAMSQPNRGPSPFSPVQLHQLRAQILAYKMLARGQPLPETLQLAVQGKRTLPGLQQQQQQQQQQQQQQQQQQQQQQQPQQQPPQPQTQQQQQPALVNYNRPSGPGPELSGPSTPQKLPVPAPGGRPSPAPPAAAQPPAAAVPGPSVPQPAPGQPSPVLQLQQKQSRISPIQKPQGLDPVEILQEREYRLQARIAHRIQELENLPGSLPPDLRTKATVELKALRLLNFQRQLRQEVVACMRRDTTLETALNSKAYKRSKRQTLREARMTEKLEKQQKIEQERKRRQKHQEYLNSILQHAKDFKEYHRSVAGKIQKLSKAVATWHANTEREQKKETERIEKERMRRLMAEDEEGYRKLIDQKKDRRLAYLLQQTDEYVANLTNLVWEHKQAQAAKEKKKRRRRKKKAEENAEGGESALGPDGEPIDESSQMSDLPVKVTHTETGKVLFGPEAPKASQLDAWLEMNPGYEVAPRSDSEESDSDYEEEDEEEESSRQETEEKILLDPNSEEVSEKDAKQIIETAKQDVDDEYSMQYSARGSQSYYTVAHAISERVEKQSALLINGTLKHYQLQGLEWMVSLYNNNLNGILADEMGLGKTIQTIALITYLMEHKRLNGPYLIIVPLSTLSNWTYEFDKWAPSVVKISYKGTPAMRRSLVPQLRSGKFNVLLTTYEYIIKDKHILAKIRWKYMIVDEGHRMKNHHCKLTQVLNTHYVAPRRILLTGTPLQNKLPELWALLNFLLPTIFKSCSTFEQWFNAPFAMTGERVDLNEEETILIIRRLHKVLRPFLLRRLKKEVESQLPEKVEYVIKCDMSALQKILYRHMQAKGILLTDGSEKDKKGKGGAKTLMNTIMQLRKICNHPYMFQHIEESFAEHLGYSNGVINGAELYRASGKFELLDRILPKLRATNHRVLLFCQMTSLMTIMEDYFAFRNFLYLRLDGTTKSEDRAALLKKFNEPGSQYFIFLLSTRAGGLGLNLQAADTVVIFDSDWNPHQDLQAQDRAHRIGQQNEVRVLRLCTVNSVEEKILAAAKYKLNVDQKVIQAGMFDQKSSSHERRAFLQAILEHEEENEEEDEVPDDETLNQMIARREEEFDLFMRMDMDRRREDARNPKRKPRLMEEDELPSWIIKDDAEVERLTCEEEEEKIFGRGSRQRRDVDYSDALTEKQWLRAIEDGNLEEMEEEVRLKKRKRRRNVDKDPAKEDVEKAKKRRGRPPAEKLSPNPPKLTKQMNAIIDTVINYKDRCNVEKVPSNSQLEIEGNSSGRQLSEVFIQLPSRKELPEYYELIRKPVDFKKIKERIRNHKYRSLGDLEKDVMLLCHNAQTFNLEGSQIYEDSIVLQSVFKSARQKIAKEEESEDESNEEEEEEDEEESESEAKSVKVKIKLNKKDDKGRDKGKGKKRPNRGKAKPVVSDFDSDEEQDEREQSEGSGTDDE

SMILES | BRM Max % Inhibition [1] [%] | IC50 [1] [µM] | IC50 [2] [nM] | Emax [2] [%]
C[C@@]1(C#N)COCc2ccc(C(=O)NCc3cc4nc(-c5cn(C6COC6)nc5CC(F)F)ccc4cn3)cc21 [Compound 136] | 83 | 0.1 to 0.5 | > 1000 | 25
CC1(c2nccc(-c3ccc4cnc(CNC(=O)c5ccc6c(c5)[C@](C)(C#N)COC6)cc4n3)n2)COC1 [Compound 137] | 88 | 0.1 to 0.5 | > 1000 | 39
COc1nn(C2CC2(F)F)cc1-c1ccc2cnc(CNC(=O)c3ccc4c(c3)[C@](C)(C#N)COC4)cc2n1 (stereo partly drawn) [Compound 140] | 94 | 0.1 to 0.5 | 500 to 1000 | 48
C[C@@]1(C#N)COCc2ccc(C(=O)NCc3cc4nc(-c5cn(C6COC6)nc5C(F)F)ccc4cn3)cc21 [Compound 145] | 94 | 0.1 to 0.5 | 500 to 1000 | 65
COc1cc(N2CCC2)ccc1-c1ccc2cnc(CNC(=O)c3ccc4c(c3)[C@](C)(C#N)COC4)cc2n1 [Compound 146] | 98 | 0.1 to 0.5 | 100 to 500 | 80
COc1cc(C(C)(C)C)ccc1-c1ccc2cnc(CNC(=O)c3ccc4c(c3)[C@](C)(C#N)COC4)cc2n1 [Compound 148] | 90 | 0.1 to 0.5 | > 1000 | 32
CN1CCCc2c(-c3ccc4cnc(CNC(=O)c5ccc6c(c5)[C@](C)(C#N)COC6)cc4n3)cccc21 [Compound 149] | 95 | 0.1 to 0.5 | 500 to 1000 | 67
Cn1cc2c(-c3ccc4cnc(CNC(=O)c5ccc6c(c5)[C@](C)(C#N)COC6)cc4n3)cccc2n1 [Compound 151] | 93 | 0.1 to 0.5 | 500 to 1000 | 56
COc1ccc(C)cc1-c1ccc2cnc(CNC(=O)c3ccc4c(c3)[C@](C)(C#N)COC4)cc2n1 [Compound 153] | 87 | 0.1 to 0.5 | > 1000 | 37
COc1cc(N2CCOCC2)ccc1-c1ccc2cnc(CNC(=O)c3ccc4c(c3)[C@](C)(C#N)COC4)cc2n1 [Compound 155] | 96 | 0.1 to 0.5 | 500 to 1000 | 67
C[C@@]1(C#N)COCc2ccc(C(=O)NCc3cc4nc(-c5ccnc(C6COC6)n5)ccc4cn3)cc21 [Compound 158] | 96 | 0.1 to 0.5 | 500 to 1000 | 75
C[C@@]1(F)COCc2ccc(C(=O)NCc3cc4nc(-c5cccc(C6(O)COC6)n5)ccc4cn3)cc21 [Compound 160] | 93 | 0.1 to 0.5 | 500 to 1000 | 62
COc1nn(C)cc1-c1cnc2cnc(CNC(=O)c3ccc4c(c3)[C@](C)(F)COC4)cc2n1 [Compound 161] | 94 | 0.1 to 0.5 | 500 to 1000 | 53
Cn1nc(-c2ccc3cnc(CNC(=O)c4ccc5c(c4)[C@](C)(C#N)COC5)cc3n2)cc1C(F)F [Compound 162] | 91 | 0.1 to 0.5 | 500 to 1000 | 59
C[C@@]1(C#N)COCc2ccc(C(=O)NCc3cc4nc(-c5cc6ccccn6n5)ccc4cn3)cc21 [Compound 164] | 92 | 0.1 to 0.5 | 500 to 1000 | 68
C[C@@]1(C#N)COCc2ccc(C(=O)NCc3cc4nn(-c5cccc(N6CCC6)n5)cc4cn3)cc21 [Compound 166] | 91 | 0.1 to 0.5 | > 1000 | 40
C[C@@]1(C#N)COCc2ccc(C(=O)NCc3ncc4ccc(-c5ccccc5)nc4c3F)cc21 [Compound 167] | 93 | 0.1 to 0.5 | 500 to 1000 | 69
CC(C)(O)C#Cc1cccc(-c2ccc3cnc(CNC(=O)c4ccc5c(c4)[C@](C)(C#N)COC5)cc3n2)n1 [Compound 170] | 96 | 0.1 to 0.5 | 500 to 1000 | 80
CC(C)n1ccc2c(-c3ccc4cnc(CNC(=O)c5ccc6c(c5)[C@](C)(C#N)COC6)cc4n3)cccc21 [Compound 174] | 98 | < 0.1 | 100 to 500 | 95
COc1cc(C2COC2)ccc1-c1ccc2cnc(CNC(=O)c3ccc4c(c3)[C@](C)(C#N)COC4)cc2n1 [Compound 175] | 97 | < 0.1 | 100 to 500 | 86
[2H]C1([2H])OC([2H])([2H])[C@@](C)(F)c2cc(C(=O)NCc3cc4nc(-c5cncc(C6CC6)n5)ccc4cn3)cnc21 [Compound 176] | 98 | < 0.1 | 500 to 1000 | 83
Cc1cn(C)c2cccc(-c3ccc4cnc(CNC(=O)c5ccc6c(c5)[C@](C)(C#N)COC6)cc4n3)c12 [Compound 177] | 94 | 0.1 to 0.5 | 500 to 1000 | 66
CCn1ccc2c(-c3ccc4cnc(CNC(=O)c5ccc6c(c5)[C@](C)(C#N)COC6)cc4n3)cccc21 [Compound 178] | 99 | < 0.1 | 100 to 500 | 96

The next lines start with the values.

BRM Max % Inhibition [1] [%] | IC50 [1] [µM] | IC50 [2] [nM] | Emax [2] [%] | SMILES
103 | < 0.1 | < 100 | 98 | Cn1c(C2CC2)cc2c(-c3ccc4cnc(CNC(=O)c5ccc6c(c5)[C@](C)(C#N)COC6)cc4n3)cccc21 [Compound 135]
101 | < 0.1 | 100 to 500 | 94 | Cn1cc(F)c2c(-c3ccc4cnc(CNC(=O)c5ccc6c(c5)[C@](C)(C#N)COC6)cc4n3)cccc21 [Compound 138]
100 | < 0.1 | 100 to 500 | 94 | Cn1c(C(F)F)cc2c(-c3ccc4cnc(CNC(=O)c5ccc6c(c5)[C@](C)(C#N)COC6)cc4n3)cccc21 [Compound 139]
100 | < 0.1 | 100 to 500 | 96 | COCc1cc2c(-c3ccc4cnc(CNC(=O)c5ccc6c(c5)[C@](C)(C#N)COC6)cc4n3)cccc2n1C [Compound 141]
98 | < 0.1 | 100 to 500 | 88 | C[C@@]1(C#N)COCc2ccc(C(=O)NCc3cc4cc(-n5cc(F)c(N6CCC6)n5)ccc4nn3)cc21 [Compound 142]
103 | < 0.1 | 100 to 500 | 89 | C[C@@]1(F)COCc2ccc(C(=O)NCc3cc4nc(-c5cccc(N6CCCC6=O)n5)cnc4cn3)cc21 [Compound 143]
102 | < 0.1 | 100 to 500 | 95 | COc1cc(C)ccc1-c1ccc2cnc(CNC(=O)c3ccc4c(c3)[C@](C)(C#N)COC4)cc2n1 [Compound 144]
101 | < 0.1 | 100 to 500 | 90 | C[C@@]1(C#N)COCc2ccc(C(=O)NCc3cc4nc(-c5cccc6c5ccn6CC(F)F)ccc4cn3)cc21 [Compound 147]
101 | < 0.1 | 100 to 500 | 95 | C[C@@]1(C#N)COCc2ccc(C(=O)NCc3cc4nc(-c5cn(C6COC6)nc5OC(F)F)ccc4cn3)cc21 [Compound 154]
99 | < 0.1 | 100 to 500 | 97 | COc1cc(Cl)ccc1-c1ccc2cnc(CNC(=O)c3ccc4c(c3)[C@](C)(C#N)COC4)cc2n1 [Compound 156]
99 | < 0.1 | 100 to 500 | 96 | COc1cc(C(F)F)ccc1-c1ccc2cnc(CNC(=O)c3ccc4c(c3)[C@](C)(C#N)COC4)cc2n1 [Compound 157]
99 | < 0.1 | 100 to 500 | 95 | C[C@@]1(C#N)COCc2ccc(C(=O)NCc3cc4nc(-c5cccc6c5ccn6CCO)ccc4cn3)cc21 [Compound 159]
98 | < 0.1 | 100 to 500 | 87 | COC(C)(C)C#Cc1cccc(-c2ccc3cnc(CNC(=O)c4ccc5c(c4)[C@](C)(C#N)COC5)cc3n2)n1 [Compound 163]
97 | < 0.1 | 100 to 500 | 80 | C[C@@]1(C#N)COCc2ccc(C(=O)NCc3cc4nc(-c5ccc6ccc(=O)n(C7CC7)c6n5)ccc4cn3)cc21 [Compound 165]
99 | < 0.1 | 100 to 500 | 93 | C[C@@]1(F)COCc2ccc(C(=O)NCc3cc4nc(-c5cccc(C6(CO)CC6)n5)ccc4cn3)cc21 [Compound 168]
98 | < 0.1 | 100 to 500 | 91 | C[C@@]1(F)COCc2ccc(C(=O)NCc3cc4nc(-c5cccc(C6(O)CC(F)(F)C6)n5)ccc4cn3)cc21 [Compound 169]
98 | < 0.1 | 100 to 500 | 92 | Cn1ccc2c(-c3ccc4cnc(CNC(=O)c5ccc6c(c5)[C@](C)(C#N)COC6)cc4n3)cc(F)cc21 [Compound 171]
99 | < 0.1 | < 100 | 97 | Cc1cc2c(-c3ccc4cnc(CNC(=O)c5ccc6c(c5)[C@](C)(C#N)COC6)cc4n3)cccc2n1C [Compound 172]
98 | < 0.1 | 100 to 500 | 94 | C[C@@]1(C#N)COCc2ccc(C(=O)NCc3cc4nc(-c5cccc6c5ccn6C5CC5)ccc4cn3)cc21 [Compound 173]
